Reference: article PMC9068772, “Discovery of first-in-class nanomolar inhibitors of heptosyltransferase I reveals a new aminoglycoside target and potential alternative mechanism of action” (Scientific Reports, 2022)
“And” between values parts separate entries of the source, which are not always exact repeats. Equal entries are not always repeated.

How the values were obtained:
[1] = biological target: T1, Heptosyltransferase I (HepI) WT (Escherichia coli, UniProt P24173); experiment: HepI inhibition, ADP/NADH coupled assay (wild type); type: biochemical, E. coli K12; conditions: for kcat: HepI WT in presence of inhibitor; for Ki: 10 μM ODLA, inhibitor varied; for Type of inhibition with ODLA: excess ADPH, ODLA varied, Lineweaver–Burk, Dixon, Cornish-Bowden; for Type of inhibition against ADPH: excess ODLA, ADPH varied; for ΔG (kcal/mol) Exp: Gibbs equation with Ki as equilibrium constant
T1 construct: made in house; host or cells: E. coli One Shot BL-21-AI
T1 sequence (P24173 whole entry): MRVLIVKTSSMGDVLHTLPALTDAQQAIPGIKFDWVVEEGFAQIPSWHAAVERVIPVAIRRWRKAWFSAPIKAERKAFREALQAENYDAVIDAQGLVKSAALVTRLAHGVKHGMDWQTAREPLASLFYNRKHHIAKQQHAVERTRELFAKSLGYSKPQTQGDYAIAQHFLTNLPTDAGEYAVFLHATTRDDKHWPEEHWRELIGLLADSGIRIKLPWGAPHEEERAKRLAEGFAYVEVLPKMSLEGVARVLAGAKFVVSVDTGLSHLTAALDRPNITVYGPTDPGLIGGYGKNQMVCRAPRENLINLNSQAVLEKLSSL
Description: (§1) As previously reported[11],[14],[15], an ADP/NADH coupled assay was used to monitor HepI activity by monitoring the absorbance change at 340 nm at 37 °C on a Cary Bio 100 UV–Vis Spectrometer. Under normal conditions, the assay buffer was composed of 50 mM HEPES, 50 mM KCl, 10 mM MgCl2, pH 7.5. The coupled enzyme reaction additionally contained 100 μM phosphoenolpyruvate, 100 μM NADH, 100 μM dithiothreitol (DTT) and 0.05 U/μL of both pyruvate kinase and lactate dehydrogenase. 100 μM ADPH was used when ODLA concentration was varied and 100 μM ODLA was used when ADPH was varied. Once a stable baseline was established (~ 5 min), the reaction was initiated by addition of HepI to a final concentration of 50 nM or 100 nM (for high and lower substrate concentrations respectively) and all reported reaction rates are after background subtraction. When running 12 samples at once, plastic cuvette stirs and a repeat pipettor was used to inject 200 μL enzyme. Inhibition of HepI was monitored using the same ADP/NADH coupled assay, all conditions of the assay were the same as previously described unless otherwise stated. Ki values for each of the compounds were determined by varying compound final concentration from 100 μm to 10 nm, and a final concentration of 10 μM ODLA. Competition assays against ADPH were done with excess ODLA (100 μM) and varying ADPH from 2–0.25 μM. Competition assays against ODLA were done with excess ADPH (100 μM) and varying ODLA from 2–0.25 μM. Reactions were started with addition of enzyme and inhibitor was varied from 30–0.01 μM. Kinetics were fit to Lineweaver-Burke (Eq. 1), competitive (Eq. 2), non-competitive (Eq. 3), mixed (Eq. 4), Dixon (Eq. 5), or Cornish-Bowden (Eq. 6) models. All fitting and plotting was done through MATLAB R2018A.1 1/V1/[S]=KM/Vmax[S]+1/Vmax 2 V[S]=Vmax[S]/KM1+[I]/Ki+[S] 3 V[S]=Vmax[S]/1+([I]/Ki)/KM+[S] 4 V[S]=Vmax[S]/KM(1+[I]/Ki)+[S](1+[I]/αKi) 5 1/V[I]=KM1+I/Ki+[S]1+I/αKi/Vmax[S] 6 [S]/V[I]=KM1+I/Ki+[S]1+I/αKi/Vmax

[2] = biological target: T2, HepI R60A (Escherichia coli, UniProt P24173, R60A); experiment: HepI inhibition, ADP/NADH coupled assay (R60A mutant); type: biochemical, E. coli K12; conditions: for ΔΔG (kcal/mol) Exp: Arg60Ala relative to WT; for ΔG (kcal/mol) Exp: Arg60Ala, from Ki; for kcat: HepI R60A in presence of inhibitor
T2 construct: made in house; host or cells: E. coli One Shot BL-21-AI (stated for HepI in general)
T2 sequence (P24173 whole entry R60A): as the sequence (P24173 whole entry) above, with R60A counted along it
Description: as §1

[3] = test system: E. coli K12; experiment: Growth challenge assay, 96-well plate; type: cell-based; conditions: for Inflection point in cell viability: E. coli K12, growth rate, Fig. 9; for Effect on growth of E. coli K12: increasing concentrations, 18-h period
Description: (§2) The assays were prepared by plating E. coli K12 onto an LB-agar plate and grown overnight (12–18 h)[60]. A colony forming unit was chosen to inoculate 10 mL of fresh LB media in a tightly capped 15 mL falcon tube and placed in an incubator (no agitation) at 37 °C for exactly 24 h to increase the number of viable cells for inoculation of the plate and thusly reproducibility in highly variable growth patterns. A 96-well plate was then filled with a variety of inhibitor concentrations taken from stock solutions made up in ultra-pure water allowing for one row to remain free of the inhibitor. Each inhibitor concentration was given 3-wells to ensure a triplicate of data is collected at once. With the same fresh media used to make the overnight culture, the overnight growths were added to the plate in a 1:1000 dilution (total volume 200 uL) and the plate sealed with clear adhesive plastic sealant. One row has been designated for uncultured media to be used for pre-blanking measurements and to ensure that the media isn’t growing spontaneously.
An experimental protocol was created using the Softmax Pro® software for a Molecular Devices Spectramax M5 plate reader. The parameters have been selected such that it collects pre-blanked absorbance readings at 600 nm wavelengths every 30 min at 37 °C with shaking every 10 min at 400 s intervals for 18 h total. Absorbance values were corrected for path length using the lateral reading path correction (8) and are plotted overtime to establish a growth curve.8 l=4×V/π×d^2 l = path length from Beer’s law ( A=εlc ), V = volume (cm^3), d = diameter of well (cm).
Data from the growth assay were analyzed using MATLAB R2018A. The derivative of the curve was calculated and the maximum rate as determined by the derivative was reported as the growth rate for that condition.

[4] = test system: capsular polysaccharide (cps) band of E. coli K12 total lipid extract; experiment: Capsular polysaccharide band density on silver-stained gels; type: cell-based
Description: as §2
As previously established, lipid extraction occurs through lysis of surface polysaccharides with a lysis buffer containing 1% SDS, 20% glycerol, 100 mM Tris–HCl and 0.04% bromophenol blue at a pH 6.8[61]. The cellular concentrations from each well were determined using the last collected OD600 corrected using Eq. (8), centrifuged and resuspended in the correct volume of lysis buffer to obtain 4 × 10^8 cells/100 µL solution. Addition of Proteinase K at 1 mg/mL concentration was incubated for 1 h at 37 °C. These samples were then loaded onto a 15% separating, 6% stacking SDS–polyacrylamide gel (recipes received from https://www.bio-rad.com/) in a 19:1 acrylamide to bis-acrylamide ratio and run with a voltage gradient from 50–150 V. The gels were then stained using the protocol described previously with no modifications[62] and imaged using a scanner.
Relative LPS band density was determined using analysis methods provided by ImageJ software. The band pixel density were analyzed relative to a purified sample of heptosylated O-deacylated Lipid A at 100 nM. The plot was generated of relative band density vs. concentration of inhibitor[63].

## NC[C@H]1O[C@H](O[C@H]2[C@H](O)[C@@H](O[C@H]3O[C@H](CO)[C@@H](O)[C@H](N)[C@H]3O)[C@H](N)C[C@@H]2N)[C@H](N)C[C@@H]1O [Tobramycin]
[1]; HepI WT
  α value, mixed model of inhibition with ODLA: greater than one
  Ki: 1100 nM and 1130 nM
  Type of inhibition with ODLA: Mixed competitive
  Type of inhibition against ADPH: uncompetitive
  ΔG (kcal/mol) Exp: -8.1 ± 0.1 kcal/mol
[1]
  kcat: 0.15 ± 0.005 s⁻¹
[2]
  Ki: 3400 ± 631 nM
  ΔΔG (kcal/mol) Exp: 0.7 ± 0.1 kcal/mol
  ΔG (kcal/mol) Exp: -7.5 ± 0.1 kcal/mol
  kcat: 0.111 ± 0.013 s⁻¹
[3]
  Inflection point in cell viability: around 6.5 ng/mL
  Effect on growth of E. coli K12: challenges the growth
[4]; 4 ng/mL tobramycin, relative to 0 ng/mL = 1
  Relative pixel density from cps band: 1.752
[4]; 4.5 ng/mL tobramycin
  Relative pixel density from cps band: 4.293
[4]; 5 ng/mL tobramycin
  Relative pixel density from cps band: 7.121
[4]; 5.5 ng/mL tobramycin
  Relative pixel density from cps band: 5.786
[4]; 6 ng/mL tobramycin
  Relative pixel density from cps band: 3.692
[4]; 6.5 ng/mL tobramycin
  Relative pixel density from cps band: 2.319
[4]; 7 ng/mL tobramycin
  Relative pixel density from cps band: 1.163
[4]; 7.5 ng/mL tobramycin
  Relative pixel density from cps band: 1.421
[4]; 8 ng/mL tobramycin
  Relative pixel density from cps band: 1.641
[4]; 9 ng/mL tobramycin
  Relative pixel density from cps band: 1.606

## [H]/N=C(/N)N[C@H]1[C@H](O)[C@@H](O)[C@H](O[C@@H]2O[C@@H](C)[C@](O)(C=O)[C@H]2O[C@@H]2O[C@@H](CO)[C@H](O)[C@@H](O)[C@@H]2NC)[C@@H](N/C(N)=N\[H])[C@@H]1O [Streptomycin]
[1]
  kcat: 0.162 ± 0.008 s⁻¹
[1]; HepI WT
  Ki: 595 ± 90 nM
  Type of inhibition with ODLA: Non-competitive
  Type of inhibition against ADPH: non-competitive
  ΔG (kcal/mol) Exp: -8.5 ± 0.1 kcal/mol
[2]
  Ki: 6250 ± 5430 nM
  ΔΔG (kcal/mol) Exp: 1.4 ± 0.4 kcal/mol
  ΔG (kcal/mol) Exp: -7.1 ± 0.4 kcal/mol
  kcat: 0.149 ± 0.013 s⁻¹
[2]; HepI R60A vs WT
  Ki relative to WT: increased the Ki values an order of magnitude
[3]
  Inflection point in cell viability: 25 ng/mL
  Effect on growth of E. coli K12: challenges the growth
[4]; 12.5 ng/mL streptomycin, relative to 0 ng/mL = 1
  Relative pixel density from cps band: 1.019
[4]; 15 ng/mL streptomycin
  Relative pixel density from cps band: 1.115
[4]; 17.5 ng/mL streptomycin
  Relative pixel density from cps band: 1.105
[4]; 20 ng/mL streptomycin
  Relative pixel density from cps band: 1.323
[4]; 22.5 ng/mL streptomycin
  Relative pixel density from cps band: 1.458
[4]; 25 ng/mL streptomycin
  Relative pixel density from cps band: 1.335
[4]; 27.5 ng/mL streptomycin
  Relative pixel density from cps band: 1.687
[4]; 30 ng/mL streptomycin
  Relative pixel density from cps band: 1.477
[4]; 32.5 ng/mL streptomycin
  Relative pixel density from cps band: 1.070
[4]; 35 ng/mL streptomycin
  Relative pixel density from cps band: 0.654
